According to paper PMC7449170, “ATI-2173, a Novel Liver-Targeted Non-Chain-Terminating Nucleotide for Hepatitis B Virus Cure Regimens” (Antimicrobial Agents and Chemotherapy, 2020):
Entries after “also recorded” stand apart in the source; their conditions may differ.

What was measured:
[1] = test system: HBV genotype B (JN406371); assay: microbe, parasite or virus in culture; assay type: cell-based; details: Hepatitis B virus, HepG2
[2] = test system: HBV genotype C (AB246345); assay: microbe, parasite or virus in culture; assay type: cell-based; details: Hepatitis B virus, HepG2
[3] = test system: HBV genotype F (HE974369); assay: microbe, parasite or virus in culture; assay type: cell-based; details: Hepatitis B virus, HepG2
[4] = test system: HBV genotype H (AB179747); assay: microbe, parasite or virus in culture; assay type: cell-based; details: Hepatitis B virus, HepG2
[5] = test system: HBV rtM204I; assay: microbe, parasite or virus in culture; assay type: cell-based; details: Hepatitis B virus, HepG2
[6] = test system: HBV rtV173L+M204I; assay: microbe, parasite or virus in culture; assay type: cell-based; details: Hepatitis B virus, HepG2
[7] = test system: HBV rtM204V; assay: microbe, parasite or virus in culture; assay type: cell-based; details: Hepatitis B virus, HepG2
[8] = test system: HBV rtL180M+M204V; assay: microbe, parasite or virus in culture; assay type: cell-based; details: Hepatitis B virus, HepG2
[9] = test system: HBV rtS202G+M204I+M250V; assay: microbe, parasite or virus in culture; assay type: cell-based; details: Hepatitis B virus, HepG2
[10] = test system: HBV rtN236T; assay: microbe, parasite or virus in culture; assay type: cell-based; details: Hepatitis B virus, HepG2
[11] = test system: HBV coreP25A; assay: microbe, parasite or virus in culture; assay type: cell-based, Hepatitis B virus; details: Hepatitis B virus, HepG2
[12] = test system: human immunodeficiency virus 1; assay: Antiviral panel: human immunodeficiency virus 1; assay type: cell-based; details: up to 100 μM, data not shown
[13] = test system: respiratory syncytial virus; assay: Antiviral panel: respiratory syncytial virus; assay type: cell-based; details: up to 100 μM, data not shown
[14] = Pharmacokinetics and tissue concentration in rats after single oral dose; assay type: in vivo, Sprague-Dawley rats; details: single oral 50 mg/kg ATI-2173 vs 25 mg/kg clevudine
Method: Female Sprague Dawley (SD) rats (from Envigo, NJ), 225 to 249 g, were used in the studies. Clevudine and ATI-2173 were administered by oral gavage (p.o.) in carboxyl methyl cellulose/PEG 400/Tween 20 (0.5%/20%/5%). The oral doses were administered at 25 mg/kg and 50 mg/kg, respectively. Blood samples were collected at 1, 2, 4, 6, 8, and 24 h into lithium-heparin microtainer tubes (BD). Plasma samples were prepared within 30 min after collection by centrifugation at 2,000× rcf for 10 min at 4°C and stored at –80°C before processing for analysis by liquid chromatography-tandem mass spectrometry (LC-MS/MS). Rat organs (skeletal muscle, liver, and heart) were collected from all rats immediately following blood collection at all time points. The tissues were immediately snap-frozen in liquid nitrogen and stored at –80°C before processing for analysis by LC-MS/MS. […]
Samples were maintained at 4°C in a Leap Pal Autosampler (CTC Analytics AG, Zwingen, Switzerland). Plasma concentrations of ATI-2173 and clevudine were determined using qualified methods with an assay range of 10 to 1,000 ng/ml. […] QCs were prepared at 30, 500, and 900 ng/ml and were measured within ± 30% of actual values. […]
Tissue levels were measured according to qualified LC-MS/MS methods with an assay range of 18 to 18,000 ng/g of tissue. […]

[15] = Food effect on plasma exposure in rats; assay type: in vivo; details: single oral 50 mg/kg, data not shown
[16] = test system: HBV genotype D; assay: microbe, parasite or virus in culture; details: Hepatitis B virus, Hepatocyte, 192 h, read-out: EC50, HBV DNA
Method: HBV genotype D was concentrated from HepDE19 culture supernatants (2.53 × 10^10 genome equivalents [GE]/ml) and provided by WuXi. On day 0, hepatocytes were seeded into a 48-well plate at a density of 1.32 × 10^5 cells/well. On day 1, hepatocytes were infected with 200 HBV GE/cell and were cultured at 37°C and 5% CO2. […] On day 8, the culture supernatants were collected and HBV DNA was harvested with QIAamp 96 DNA blood kit (Qiagen, 51162).

[17] = Cell viability (CC50) in HepG2.2.15 cells; details: human
[18] = test system: HepG2 cells; assay: Mitochondrial toxicity, glucose/galactose assay; details: 20 mM glucose or 10 mM galactose, up to 100 μM, day 11
[19] = test system: SkMC human skeletal muscle cells; assay: Cytotoxicity in skeletal muscle cells (CellTiter-Glo); details: at 100 μM or greater, 72 h
Method: HK-2 human kidney cells were obtained from ATCC (Manassas, VA) and cultured in Gibco Keratinocyte serum-free medium (Thermo Fisher Scientific, Waltham, MA) supplemented with 10% FBS (Peak Serum, Wellington, CO). Human skeletal muscle cells were obtained from Lonza (Walkersville, MD) and cultured in SkGM-2 skeletal muscle cell growth medium-2 (Lonza). Both HK-2 and skeletal muscle cells were cultured humidified at 37°C and 5% CO2. Cryopreserved human primary hepatocytes and medium were received from Lonza. Cryopreserved iCell cardiomyocytes and cardiomyocyte medium were purchased from Stem Cell Technologies (Vancouver, BC, Canada). Cryopreserved human bone marrow mononuclear cells were purchased from Lonza with HemaTox Myeloid medium purchased from [sequence] […] All cryopreserved cells (human primary hepatocytes, iCell cardiomyocytes, and human bone marrow mononuclear cells) were stored in vapor phase liquid nitrogen until the day of plating. […] Serial dilutions of compounds in DMSO were as follows: 100, 10, 1, 0.1, 0.01, 0.001, 0.0001, and 0.00001 μM (final concentration of DMSO in medium was 0.5%). […]
(§1) Following incubation, cells were dosed and incubated for 72 h at 37°C and 5% CO2. Following incubation, the endpoint cell viability CellTiter-Glo 2.0 assay (Promega, San Luis Obispo, CA) was performed and luminescence data collected on a Synergy 4 plate reader (Biotek, Winooski, VT). […]

[20] = test system: human bone marrow mononuclear cells; assay: Cytotoxicity in bone marrow mononuclear cells (CellTiter-Glo); details: at 100 μM or greater, 72 h
Method: HK-2 human kidney cells were obtained from ATCC (Manassas, VA) and cultured in Gibco Keratinocyte serum-free medium (Thermo Fisher Scientific, Waltham, MA) supplemented with 10% FBS (Peak Serum, Wellington, CO). Human skeletal muscle cells were obtained from Lonza (Walkersville, MD) and cultured in SkGM-2 skeletal muscle cell growth medium-2 (Lonza). Both HK-2 and skeletal muscle cells were cultured humidified at 37°C and 5% CO2. Cryopreserved human primary hepatocytes and medium were received from Lonza. Cryopreserved iCell cardiomyocytes and cardiomyocyte medium were purchased from Stem Cell Technologies (Vancouver, BC, Canada). Cryopreserved human bone marrow mononuclear cells were purchased from Lonza with HemaTox Myeloid medium purchased from [sequence] […] All cryopreserved cells (human primary hepatocytes, iCell cardiomyocytes, and human bone marrow mononuclear cells) were stored in vapor phase liquid nitrogen until the day of plating. […] Serial dilutions of compounds in DMSO were as follows: 100, 10, 1, 0.1, 0.01, 0.001, 0.0001, and 0.00001 μM (final concentration of DMSO in medium was 0.5%).
HK-2 and skeletal muscle cells were seeded into 96-well plates at 5,000 cells/well and incubated overnight at 37°C and 5% CO2. Human hepatocytes were thawed, diluted in hepatocyte plating medium (Lonza) and seeded into a 96-well, collagen-coated plates at 2.5 × 10^4 cells/well. Hepatocytes were incubated for 6 h at 37°C in 5% CO2, then the medium was aspirated and replaced with hepatocyte culture medium at 50 μl/well, and finally incubated overnight. The iCell cardiomyocytes were thawed, suspended in iCell thawing/plating medium, and plated at 4 × 10^4 cells/well in a gelatin-coated 96-well plate. iCells were incubated for 2 days at 37°C in 7% CO2. […]
as §1

SMILES: Cc1cn(C2OC(COP(=O)(NC(C)C(=O)OC(C)C)Oc3ccccc3)C(O)C2F)c(=O)[nH]c1=O (centres unmarked) [ATI-2173]
- EC50 [1]: 212 nM
- EC50 [2]: 227 nM
- EC50 [3]: 328 nM
- EC50 [4]: 718 nM
- EC50 [5]: > 10000 nM
- EC50 [6]: > 10000 nM
- EC50 [7]: 162 nM
- EC50 [8]: > 10000 nM
- EC50 [9]: > 10000 nM
- EC50 [10]: 386 nM
- EC50 [11]: 537 nM
- Antiviral efficacy [12]: no detectable efficacy
- Antiviral efficacy [13]: no detectable efficacy
- Liver exposure to the 5′-triphosphate versus equimolar clevudine [14]: nearly identical liver exposure
- Difference in plasma exposure (Cmax or AUC0-last) to ATI-2173 or clevudine, fed versus fasted [15]: no discernible differences
- EC50 [16]: 1.31 nM
- CC50 [17]: > 10000 nM
- Mitochondrial toxicity (cell viability in glucose versus galactose medium) [18]: no apparent mitochondrial toxicity
- Cytotoxicity [19]: Minimal cytotoxicity; also recorded: very mild
- Cytotoxicity [20]: Minimal cytotoxicity and mild
